Source: the OligoGym collection
Several values for one entry are separate records, joined by “and”; a condition that tells them apart may be missing. Equal values may be shown once. After the bases stand the sugars from the 5' end (letter, count) and the backbone: PS all phosphorothioate, else s phosphorothioate and o phosphodiester by linkage. Methylation of C is not given here. e = 2'-O-(2-methoxyethyl) (MOE); l = locked nucleic acid (LNA); d = 2'-deoxy (DNA)

Tests used:
[1] = biological target: DGAT2; conditions: ASO
[2] = biological target: SNHG14; conditions: ASO, Human Neuronal Cell

AAACCCTCGACTGAGTGTGA (sugars e5 d10 e5, PS)
target mRNA inhibition ([1]; HepG2, 0.12 µM): 37%

AAATCCATGTCAGAGAGGCT (sugars e5 d10 e5, PS)
target mRNA inhibition ([1]; HepG2, 2.5 µM): 64%
target mRNA inhibition ([1]; HepG2, 10 µM): 92%

AACAGGGTACAACTCTCTTG (sugars e5 d10 e5, PS)
target mRNA inhibition ([1]; HepG2, 2.5 µM): 61%
target mRNA inhibition ([1]; HepG2, 10 µM): 92%

AACCACTGTTGCTGAGCTCA (sugars e5 d10 e5, PS)
target mRNA inhibition ([1]; HepG2, 2.5 µM): 74% and 72%
target mRNA inhibition ([1]; HepG2, 10 µM): 88%

AACTCTGCCATTTAATGAGC (sugars e5 d10 e5, PS)
target mRNA inhibition ([1]; HepG2, 2.5 µM): 17%
target mRNA inhibition ([1]; HepG2, 10 µM): 53%

AACTGAGATCTCCAGCAGCA (sugars e5 d10 e5, PS)
target mRNA inhibition ([1]; HepG2, 2.5 µM): 91% and 78%
target mRNA inhibition ([1]; HepG2, 10 µM): 94% and 96%

AAGAGCTTCACCAGGGCCTC (sugars e5 d10 e5, PS)
target mRNA inhibition ([1]; HepG2, 0.12 µM): 44%
target mRNA inhibition ([1]; HepG2, 2.5 µM): 10% and 22%
target mRNA inhibition ([1]; HepG2, 10 µM): 83%
target mRNA inhibition ([1]; HepG2, 20 µM): 92%

AAGCCTCGGTGTCCTCTCCT (sugars e5 d10 e5, PS)
target mRNA inhibition ([1]; HepG2, 2.5 µM): 50%
target mRNA inhibition ([1]; HepG2, 10 µM): 87%

AAGGCACCTGTTACTACATG (sugars e5 d10 e5, PS)
target mRNA inhibition ([1]; HepG2, 2.5 µM): 67%
target mRNA inhibition ([1]; HepG2, 10 µM): 93%

AAGTAAGCCTCGGTGTCCTC (sugars e5 d10 e5, PS)
target mRNA inhibition ([1]; HepG2, 2.5 µM): 84%
target mRNA inhibition ([1]; HepG2, 10 µM): 69%

AAGTGAACCCTCACTTCCCA (sugars e5 d10 e5, PS)
target mRNA inhibition ([1]; HepG2, 0.12 µM): 35%

AATGCCAATGCCTAGGT (sugars e3 d10 e4, PS)
target mRNA inhibition ([1]; HepG2, 2.5 µM): 70% and 69%
target mRNA inhibition ([1]; HepG2, 10 µM): 81% and 82%

AATTTCCTTACAGGGTATTG (sugars e5 d10 e5, PS)
target mRNA inhibition ([1]; HepG2, 0.12 µM): 46%

ACAAAAGTCTGACATGGTGC (sugars e5 d10 e5, PS)
target mRNA inhibition ([1]; HepG2, 2.5 µM): 77%
target mRNA inhibition ([1]; HepG2, 10 µM): 78%

ACACACAATATCCATGGACT (sugars e5 d10 e5, PS)
target mRNA inhibition ([1]; HepG2, 2.5 µM): 68%
target mRNA inhibition ([1]; HepG2, 10 µM): 95%

ACAGCCCAGTTTCGGACCCA (sugars e5 d10 e5, PS)
target mRNA inhibition ([1]; HepG2, 0.12 µM): 27%

ACAGCGATGAGCCAGCA (sugars e3 d10 e4, PS)
target mRNA inhibition ([1]; HepG2, 2.5 µM): 45%
target mRNA inhibition ([1]; HepG2, 10 µM): 88%

TTCCTCTGCTTATAACT (sugars l3 d12 l2, PS)
target mRNA inhibition ([2]; 0.2 µM): 50%
target mRNA inhibition ([2]; 1 µM): 61%

TTCCTTTCATTAACATTT (sugars l4 d12 l2, PS)
target mRNA inhibition ([2]; 0.2 µM): 37%
target mRNA inhibition ([2]; 1 µM): 55%

TTCTACTATACTTTCC (sugars l4 d10 l2, PS)
target mRNA inhibition ([2]; 0.2 µM): 55%
target mRNA inhibition ([2]; 1 µM): 69%

TTCTACTATACTTTCCTCT (sugars ldddddddddddlddldll, PS)
target mRNA inhibition ([2]; 7.5 µM): 54%

TTCTACTATACTTTCCTCT (sugars ldddldddddddldlddll, PS)
target mRNA inhibition ([2]; 7.5 µM): 58%

TTCTGTATACACCATCC (sugars l1 d1 l1 d11 l3, PS)
target mRNA inhibition ([2]; 7.5 µM): 58%

TTCTGTATACACCATCC (sugars l1 d3 l1 d9 l3, PS)
target mRNA inhibition ([2]; 7.5 µM): 64%

TTCTGTATACACCATCC (sugars l1 d10 l1 d3 l2, PS)
target mRNA inhibition ([2]; 7.5 µM): 51%

TTCTGTATACACCATCC (sugars l1 d13 l3, PS)
target mRNA inhibition ([2]; 7.5 µM): 59%

TTCTGTATACACCATCC (sugars l2 d11 l1 d1 l2, PS)
target mRNA inhibition ([2]; 7.5 µM): 56%

TTCTGTATACACCATCCC (sugars l1 d12 l1 d2 l2, PS)
target mRNA inhibition ([2]; 7.5 µM): 53%

TTCTGTATACACCATCCC (sugars ldddlddddddddlddll, PS)
target mRNA inhibition ([2]; 7.5 µM): 54%

TTCTTAGTCACACACA (sugars l4 d10 l2, PS)
target mRNA inhibition ([2]; 0.2 µM): -3%
target mRNA inhibition ([2]; 1 µM): -43%

TTGATTCAATTCCCTTA (sugars ldllddddddddlddll, PS)
target mRNA inhibition ([2]; 7.5 µM): 62%

TTGATTCAATTCCCTTA (sugars lldldddddddldldll, PS)
target mRNA inhibition ([2]; 7.5 µM): 59%

TTGTCTCTAATCCTATT (sugars l2 d11 l4, PS)
target mRNA inhibition ([2]; 0.2 µM): 24%
target mRNA inhibition ([2]; 1 µM): 52%

TTTAACCTTGCTTATA (sugars l2 d10 l4, PS)
target mRNA inhibition ([2]; 0.2 µM): 23%
target mRNA inhibition ([2]; 1 µM): 25%

TTTACACTTAATTATACTTC (sugars ldddlldddddddllddlll, PS)
target mRNA inhibition ([2]; 7.5 µM): 60%

TTTACACTTAATTATACTTC (sugars lllddldddddddlldllll, PS)
target mRNA inhibition ([2]; 7.5 µM): 15%

TTTACATTCCCATCATC (sugars l2 d11 l4, PS)
target mRNA inhibition ([2]; 0.2 µM): 57%
target mRNA inhibition ([2]; 1 µM): 66%

TTTATACCCTTTCCAA (sugars l2 d10 l4, PS)
target mRNA inhibition ([2]; 0.2 µM): 55%
target mRNA inhibition ([2]; 1 µM): 63%

TTTATACCTTTCTTTAACCC (sugars l1 d15 l1 d1 l2, PS)
target mRNA inhibition ([2]; 7.5 µM): 36%

TTTATACCTTTCTTTAACCC (sugars lddddddddddddldlddll, PS)
target mRNA inhibition ([2]; 7.5 µM): 52%

TTTATACCTTTCTTTAACCC (sugars lddddlddddddddddldll, PS)
target mRNA inhibition ([2]; 7.5 µM): 63%

TTTATCAATATCTTCTCA (sugars l1 d2 l1 d10 l4, PS)
target mRNA inhibition ([2]; 7.5 µM): 53%

TTTATCAATATCTTCTCA (sugars lddlllddddddlddlll, PS)
target mRNA inhibition ([2]; 7.5 µM): 60%

TTTATCAATATCTTCTCAC (sugars l1 d4 l1 d9 l4, PS)
target mRNA inhibition ([2]; 7.5 µM): 52%

TTTATCAATATCTTCTCACT (sugars lddlddldddddddddldll, PS)
target mRNA inhibition ([2]; 7.5 µM): 58%

TTTATCTATTTAATTTACA (sugars l4 d13 l2, PS)
target mRNA inhibition ([2]; 0.2 µM): 7%
target mRNA inhibition ([2]; 1 µM): 6%

TTTATTTCCATTTATTTTC (sugars l5 d7 l1 d3 l3, PS)
target mRNA inhibition ([2]; 7.5 µM): 55%

TTTATTTCCATTTATTTTC (sugars llddlldddddddldllll, PS)
target mRNA inhibition ([2]; 7.5 µM): 66%

TTTCCAATGAATCTAT (sugars l2 d10 l4, PS)
target mRNA inhibition ([2]; 0.2 µM): 21%
target mRNA inhibition ([2]; 1 µM): 36%

TTTCCATCTACTATTA (sugars l4 d10 l2, PS)
target mRNA inhibition ([2]; 0.2 µM): 60%
target mRNA inhibition ([2]; 1 µM): 67%

TTTCCATTTATTTCCATTTA (sugars lddddldddddddddlddll, PS)
target mRNA inhibition ([2]; 7.5 µM): 44%

TTTCCATTTATTTCCATTTA (sugars lddddldddddddlddldll, PS)
target mRNA inhibition ([2]; 7.5 µM): 58%

TTTGACATTCCATCTC (sugars l3 d10 l3, PS)
target mRNA inhibition ([2]; 0.2 µM): 56%
target mRNA inhibition ([2]; 1 µM): 59%

TTTTAACCAGAGTGGCATC (sugars l4 d13 l2, PS)
target mRNA inhibition ([2]; 7.5 µM): 45%

TTTTTATACCTTTCTTTAAC (sugars l1 d12 l1 d2 l4, PS)
target mRNA inhibition ([2]; 7.5 µM): 43%

TTTTTATACCTTTCTTTAAC (sugars l2 d12 l3 d1 l2, PS)
target mRNA inhibition ([2]; 7.5 µM): 62%

TTTTTATACCTTTCTTTAAC (sugars lllldddddddddldlddll, PS)
target mRNA inhibition ([2]; 7.5 µM): 69%

TTTTTTCTTACTATCTTCAA (sugars l1 d4 l1 d10 l4, PS)
target mRNA inhibition ([2]; 7.5 µM): 55%

TTTTTTCTTACTATCTTCAA (sugars ldllldldddddddddldll, PS)
target mRNA inhibition ([2]; 7.5 µM): 58%

TTTTTTCTTACTATCTTCAA (sugars llddldldddddddldldll, PS)
target mRNA inhibition ([2]; 7.5 µM): 60%

TTTTTTCTTACTATCTTCAA (sugars lldlldlddddddddlddll, PS)
target mRNA inhibition ([2]; 7.5 µM): 58%

TTTTTTTCTTACTATCTTCA (sugars l1 d2 l2 d13 l2, PS)
target mRNA inhibition ([2]; 7.5 µM): 43%

TTTTTTTCTTACTATCTTCA (sugars l3 d15 l2, PS)
target mRNA inhibition ([2]; 7.5 µM): 28%

TTTTTTTCTTACTATCTTCA (sugars ldlddddddddddlddddll, PS)
target mRNA inhibition ([2]; 7.5 µM): 46%
